# In patent US10604509B2, “Nrf2 regulators” (GlaxoSmithKline Intellectual Property Development Limited, priority 2015, dated 2020):
# Counter-ions that a name gives are not always drawn.
# System: NQO1 specific enzyme activity in BEAS-2B cells
# Assay: BEAS-2B NQO1 MTT assay
# Format: cell-based
# Conditions: BEAS-2B cells, 48 hours with compound, MTT readout; read-out: EC50 of NQO1 specific activity induction
# Description: NAD(P)H:quinone oxidoreductase 1 (NQO1), also called DT diaphorase, is a homodimeric FAD-containing enzyme that catalyzes obligatory NAD(P)H-dependent two-electron reductions of quinones and protects cells against the toxic and neoplastic effects of free radicals and reactive oxygen species arising from one-electron reductions. The transcription of NQO1 is finely regulated by NRF2, and thus NQO1 activity is a good marker for NRF2 activation. On day one, frozen BEAS-2B cells (ATCC) are thawed in a water bath, counted, and re-suspended at a concentration of 250,000 cells/mL. Fifty microliters of cells are plated in 384 well black clear-bottomed plates. Plates are incubated at 37° C., 5% CO2 overnight. On day two, plates are centrifuged and 50 nL of compound or controls are added to the cells. Plates are then incubated at 37° C., 5% CO2 for 48 hours. On day four, medium is aspirated from the plate and crude cell lysates are made by adding 13 uL of 1× Cell Signaling Technologies lysis buffer with 1 Complete, Mini, EDTA-free Protease Inhibitor Tablet (Roche) for each 10 mL of lysis buffer. After lysis plates are incubated for 20 minutes at room temperature. Two microliters of lysate are removed for use in Cell Titer Glo assay (Promega) and MTT cocktail is prepared (Prochaska et. al. 1998) for measurement of NQO1 activity. Fifty microliters of MTT cocktail is added to each well, plate is centrifuged, and analyzed on an Envision plate reader (Perkin Elmer) using Absorbance 570 nm label for 30 minutes. Product formation is measured kinetically and the EC50 of NQO1 specific activity induction is calculated by plotting the change in absorbance (Delta OD/min) versus the log of compound concentration followed by 3-parameter fitting.
row,Compound,EC50 [nM]
1,"Cc1ccc(C(CC(=O)O)c2ccc3c(nnn3C)c2C)cc1CN1Cc2cc(C#N)ccc2OC(C)(C)C1 (single isomer, unassigned) [Example 172]",10 to 100
2,"Cc1ccc([C@@H](CC(=O)O)c2ccc3c(nnn3C)c2C)cc1CN1Cc2cc(F)ccc2OC(C)(C)C1 [Example 57, (R)-3-(1,4-Dimethyl-1H-benzo[d][1,2,3]triazol-5-yl)-3-(3-((7-fluoro-2,2-dimethyl-2,3-dihydrobenzo[f][1,4]oxazepin-4(5H)-yl)methyl)-4-methylphenyl)propanoic acid, 0.7formic acid salt]",10 to 100
3,"CCCn1cc(CCC(c2ccc(C)c(Cn3ccnc3CN3CCC(CC)CC3)c2)C(C)(C)C(=O)O)nn1 (single isomer, unassigned) [Example 248, 3-(3-((2-((4-ethylpiperidin-1-yl)methyl)-1H-imidazol-1-yl)methyl)-4-methylphenyl)-2,2-dimethyl-5-(1-propyl-1H-1,2,3-triazol-4-yl)pentanoic Acid]",10 to 100

# Same assay, conditions: BEAS-2B cells, 48 hours with compound, MTT readout; trifluoroacetic acid salt; read-out: EC50 of NQO1 specific activity induction
row,Compound,EC50 [nM]
1,"Cc1ccc(C(c2ccc3c(nnn3C)c2C)C(C)(C)C(=O)O)cc1Cn1ccnc1CN1CCCCCC1 (centres unmarked) [Example 141, 3-(3-((2-(Azepan-1-ylmethyl)-1H-imidazol-1-yl)methyl)-4-methylphenyl)-3-(1,4-dimethyl-1H-benzo[d][1,2,3]triazol-5-yl)-2,2-dimethylpropanoic acid, trifluoroacetic acid salt]",1000 to 10000

# Same assay, conditions: Homo sapiens, BEAS-2B, 48 h, BEAS-2B cells, 48 hours with compound, MTT readout; read-out: EC50 of NQO1 specific activity induction
row,Compound,EC50 [nM]
1,"CC[C@@H]1CN(Cc2cc(C(c3ccc4c(nnn4C)c3C)C(C)(C)C(=O)O)ccc2C)Cc2cccnc2O1 (stereo partly drawn) [Example 113, 3-(1,4-Dimethyl-1H-benzo[d][1,2,3]triazol-5-yl)-3-(3-(((R)-2-ethyl-2,3-dihydropyrido[3,2-f][1,4]oxazepin-4(5H)-yl)methyl)-4-methylphenyl)-2,2-dimethylpropanoic Acid]",100 to 1000
2,"Cc1ccc(C(CC(=O)O)c2ccc3c(nnn3C)c2C)cc1Cc1nnnn1CC1CCCCC1 (centres unmarked) [Example 134, 3-(3-((1-(Cyclohexylmethyl)-1H-tetrazol-5-yl)methyl)-4-methylphenyl)-3-(1,4-dimethyl-1H-benzo[d][1,2,3]triazol-5-yl)propanoic acid, hydrochloride salt]",100 to 1000
3,"Cc1ccc2c(c1)CN(Cc1cc([C@@H](CC(=O)O)c3ccc4c(nnn4C)c3C)ccc1C)CC(C)(C)O2 [Example 175, (R)-3-(1,4-Dimethyl-1H-benzo[d][1,2,3]triazol-5-yl)-3-(4-methyl-3-((2,2,7-trimethyl-2,3-dihydrobenzo[f][1,4]oxazepin-4(5H)-yl)methyl)phenyl)propanoic Acid]",10 to 100
4,"Cc1ccc([C@H](CC(=O)O)c2ccc3c(nnn3C)c2C)cc1CN1CCCC(Cn2cccn2)C1 (stereo partly drawn) [Example 215, (3S)-3-(3-((3-((1H-Pyrazol-1-yl)methyl)piperidin-1-yl)methyl)-4-methylphenyl)-3-(1,4-dimethyl-1H-benzo[d][1,2,3]triazol-5-yl)propanoic Acid]",1000 to 10000
5,"Cc1ccc(C(c2ccc3c(nnn3C)c2C)C(C)(C)C(=O)O)cc1Cn1ccnc1CN1CCCOCC1 (centres unmarked) [Example 138, 3-(3-((2-((1,4-Oxazepan-4-yl)methyl)-1H-imidazol-1-yl)methyl)-4-methylphenyl)-3-(1,4-dimethyl-1H-benzo[d][1,2,3]triazol-5-yl)-2,2-dimethylpropanoic Acid]",1000 to 10000
6,"CC[C@@H]1CN(Cc2cc(C(CC(=O)O)c3ccc4c(nnn4C)c3C)ccc2C)Cc2cc(Cl)ccc2O1 (stereo partly drawn) [Example 77, Ammonium 3-(3-(((R)-7-Chloro-2-ethyl-2,3-dihydrobenzo[f][1,4]oxazepin-4(5H)-yl)methyl)-4-methylphenyl)-3-(1,4-dimethyl-1H-benzo[d][1,2,3]triazol-5-yl)propanate]",1000 to 10000
7,"CC[C@@H]1CN(Cc2cc([C@H](CC(=O)O)c3ccc4c(nnn4C)c3C)ccc2F)Cc2ccncc2O1 [Example 260, (S)-3-(1,4-dimethyl-1H-benzo[d][1,2,3]triazol-5-yl)-3-(3-(((R)-2-ethyl-2,3-dihydropyrido[4,3-f][1,4]oxazepin-4(5H)-yl)methyl)-4-fluorophenyl)propanoic acid]",100 to 1000
8,"CC[C@@H]1CN(Cc2cc([C@H](CC(=O)O)c3ccc4c(nnn4C)c3C)ccc2C)Cc2cccc(F)c2O1 [Example 58, (S)-3-(1,4-Dimethyl-1H-benzo[d][1,2,3]triazol-5-yl)-3-(3-(((R)-2-ethyl-9-fluoro-2,3-dihydrobenzo[f][1,4]oxazepin-4(5H)-yl)methyl)-4-methylphenyl)propanoic acid, Sodium salt]",10 to 100
9,"COc1ccc2c(c1)OC(C)(C)CN(Cc1cc([C@@H](CC(=O)O)c3ccc4c(nnn4C)c3C)ccc1C)C2 [Example 167, (R)-3-(1,4-Dimethyl-1H-benzo[d][1,2,3]triazol-5-yl)-3-(3-((8-methoxy-2,2-dimethyl-2,3-dihydrobenzo[f][1,4]oxazepin-4(5H)-yl)methyl)-4-methylphenyl)propanoic acid]",10 to 100
10,"Cc1ccc([C@@H](c2ccc3c(nnn3C)c2C)C(C)(C)C(=O)O)cc1Cn1ccnc1CN1CCCCC1 [Example 150, (S)-3-(1,4-Dimethyl-1H-benzo[d][1,2,3]triazol-5-yl)-2,2-dimethyl-3-(4-methyl-3-((2-(piperidin-1-ylmethyl)-1H-imidazol-1-yl)methyl)phenyl) propanoic acid]",< 1
11,"CCC1CCN(Cc2nccn2Cc2cc([C@H](c3ccc4c(nnn4C)c3C)C(C)C(=O)O)ccc2C)CC1 (stereo partly drawn) [Example 152, (3R)-3-(1,4-Dimethyl-1H-benzo[d][1,2,3]triazol-5-yl)-3-(3-((2-((4-ethylpiperidin-1-yl)methyl)-1H-imidazol-1-yl)methyl)-4-methylphenyl)-2-methylpropanoic Acid, Trifluoroacetic Acid Salt]",100 to 1000
12,"Cc1ccc(C(c2ccc3c(nnn3C)c2C)C(C)(C)C(=O)O)cc1CN1Cc2cnccc2OC(C)(C)C1 (centres unmarked) [Example 22, 3-(1,4-Dimethyl-1H-benzo[d][1,2,3]triazol-5-yl)-3-(3-((2,2-dimethyl-2,3-dihydropyrido[3,4-f][1,4]oxazepin-4(5H)-yl)methyl)-4-methylphenyl)-2,2-dimethylpropanoic Acid, Trifluoroacetic Acid]",1 to 10
13,"CCC1CN(Cc2cc(C(CC(=O)O)c3ccc4c(nnn4C)c3C)ccc2C)Cc2ccc(Br)cc2O1 (centres unmarked) [Example 82, 3-(3-((8-Bromo-2-ethyl-2,3-dihydrobenzo[f][1,4]oxazepin-4(5H)-yl)methyl)-4-methylphenyl)-3-(1,4-dimethyl-1H-benzo[d]-[1,2,3]triazol-5-yl)propanoic acid]",10 to 100
14,CCC1CN(Cc2cc(C(CC(=O)O)c3cc(OC)c4c(c3)nnn4C)ccc2C)Cc2ccccc2O1 (centres unmarked) [compound 46],100 to 1000
15,"CC[C@@H]1CN(Cc2cc(C(CC(=O)O)c3ccc4c(nnn4CC)c3F)ccc2C)Cc2ccccc2O1 (single isomer, unassigned) [Example 181]",10 to 100

# Same assay, conditions: Homo sapiens, BEAS-2B, 48 h, read-out: EC50 of NQO1 specific activity induction
row,Compound,EC50 [nM]
1,"CC[C@@H]1CN(Cc2cc([C@@H](c3ccc4c(nnn4C)c3C)C(C)(C)C(=O)O)ccc2C)Cc2cnccc2O1 [Example 24, (S)-3-(1,4-Dimethyl-1H-benzo[d][1,2,3]triazol-5-yl)-3-(3-(((R)-2-ethyl-2,3-dihydropyrido[3,4-f][1,4]oxazepin-4(5H)-yl)methyl)-4-methylphenyl)-2,2-dimethylpropanoic Acid, Formic Acid Salt]",< 1
